Assay results: patent US20130178413A1, “HCV NS3 PROTEASE INHIBITORS” (priority 2010, published 2013)
Like-named read-outs stand apart in the source and are kept apart here.

Legend:
[1] = molecular target: NS3/4A protease gt 1b A156V (Hepatitis C virus genotype 1b, UniProt P26663, A1182V); experiment: HCV NS3 protease time-resolved fluorescence (TRF) assay, NS3/4A inhibitory activity (Ki), gt 1b A156V mutant; type: biochemical, hepatitis C virus (HCV)
Method: (§1) The HCV NS3 protease inhibitory activity of the present compounds may be tested using assays known in the art. One such assay is HCV NS3 protease time-resolved fluorescence (TRF) assay as described below and in International Patent Application Publication WO2006/102087. Other examples of such assays are described in e.g., International Patent Application Publication WO2005/046712. HCV NS3 protease inhibitors, such as those described herein have a Ki less than 50 μM, such as less than 10 μM, and less than 100 nM. Ki is determined by an NS3 protease assay. The assay is performed in a final volume of 100 μl in assay buffer containing 50 mM HEPES, pH 7.5, 150 mM NaCl, 15% glycerol, 0.15% TRITON X-100, 10 mM DTT, and 0.1% PEG 8000. NS3 protease is pre-incubated with various concentrations of inhibitors in DMSO for 30 minutes. The reaction is initiated by adding the TRF peptide substrate (final concentration 100 nM). NS3 mediated hydrolysis of the substrate is quenched after 1 hour at room temperature with 100 μl of 500 mM MES, pH 5.5. Product fluorescence is detected using either a VICTOR V2 or FUSION fluorophotometer (Perkin Elmer Life and Analytical Sciences) with excitation at 340 nm and emission at 615 nm with a 400 μs delay. Testing concentrations of different enzyme forms are selected to result in a signal to background ratio (S/B) of 10-30. IC50 values are derived using a standard four-parameter fit to the data. Ki values are derived from IC50 values using the following formula,
(§2) IC50=Ki(1+[S]/KM), Eqn (1),
(§3) where [S] is the concentration of substrate peptide in the reaction and KM is the Michaelis constant. See P. Gallinari et al., 38 BIOCHEM. 5620-32 (1999); P. Gallinari et al., 72 J. VIROL. 6758-69 (1998); M. Taliani et al., 240 ANAL. BIOCHEM. 60-67 (1996).
(§4) One such assay is HCV NS3 protease time-resolved fluorescence (TRF) assay as described below and in Mao et al., Anal Biochem. 373:1-8, 2008 and International Patent Application Publication WO 2006/102087. A NS3 protease assay can be performed, for example, in a final volume of 100 μl assay buffer containing 50 mM HEPES, pH 7.5, 150 mM NaCl, 15% glycerol, 0.15% TRITON X-100, 10 mM DTT, and 0.1% PEG 8000. NS3 and NS4A protease is pre-incubated with various concentrations of inhibitors in DMSO for 30 minutes. The reaction is initiated by adding the TRF peptide substrate (final concentration 100 nM). NS3 mediated hydrolysis of the substrate is quenched after 1 hour at room temperature with 100 μl of 500 mM MES, pH 5.5. Product fluorescence is detected using either a VICTOR V2 or FUSION fluorophotometer (Perkin Elmer Life and Analytical Sciences) with excitation at 340 nm and emission at 615 nm with a 400 μs delay. Testing concentrations of different enzyme forms are selected to result in a signal to background ratio (S/B) of 10-30. IC50 values are derived using a standard four-parameter fit to the data. Ki values are derived from IC50 values using the following formula,
as §3, with “(1996); Mao et al., Analytical Biochemistry 373: 1-8, 2008. Measuring Compound Inhibitory Potency (Replicon EC50 (nM))” for “(1996).”

[2] = molecular target: NS3/4A protease gt 3a (Hepatitis C virus genotype 3a, UniProt Q81258); experiment: HCV NS3 protease time-resolved fluorescence (TRF) assay, NS3/4A inhibitory activity (Ki), gt 3a; type: biochemical; settings: genotype 3a NS3/4A; read-out: Enzyme Activity gt 3a Ki
Method: as §1, §2, §3, §4
as §3, with “(1996); Mao et al., Analytical Biochemistry 373: 1-8, 2008. Measuring Compound Inhibitory Potency (Replicon EC50 (nM))” for “(1996).”

[3] = system: gt 1b Replicon; experiment: HCV replicon assay, compound inhibitory potency (Replicon EC50); type: cell-based; settings: Hepatitis C virus, GT1B
Method: Measurement of inhibition by compounds was performed using the HCV replicon system. Several different replicons encoding different HCV genotypes or mutations were used. In addition, potency measurements were made using different formats of the replicon assay, including different ways of measurements and different plating formats. See Jan M. Vrolijk et al., A replicons-based bioassay for the measurement of interferons in patients with chronic hepatitis C, 110 J. VIROLOGICAL METHODS 201 (2003); Steven S. Carroll et al., Inhibition of Hepatitis C Virus RNA Replication by 2′-Modified Nucleoside Analogs, 278(14) J. BIOLOGICAL CHEMISTRY 11979 (2003). However, the underlying principles are common to all of these determinations, and are outlined below.
Stable neomycin phosphotransferase encoding replicon-harboring cell lines were used, so all cell lines were maintained under G418 selection prior to the assay. In some cases the cell lines encoded a luciferase:Neor fusion and could be assayed either directly by determination of RNA copy number, or indirectly through measurement of the luciferase activity.
To initiate an assay, replicon cells were plated in the presence of a dilution series of test compound in the absence of G418. Typically, the assays were performed in a 96-well plate format for manual operation, or a 384 well plate in an automated assay. Replicon cells and compound were incubated for 24-48 hours, depending on the assay. At the end of the assay, cells are washed free of media and compound and then lysed. For direct quantitation, RNA levels were measured by ^32P-probe hybridization and protection, or in a TAQMAN based assay and normalized to cellular cyclophilin A RNA levels. In some cases, luciferase activity was measured using a conventional luciferase assay. In all cases EC50 determinations were calculated as a percent of a DMSO control by fitting the data to a four parameter fit function.

[4] = molecular target: NS3/4A protease gt 1b (Hepatitis C virus genotype 1b, UniProt P26663); experiment: HCV NS3 protease time-resolved fluorescence (TRF) assay, NS3/4A inhibitory activity (Ki), gt 1b; type: biochemical; settings: genotype 1b NS3/4A; read-out: Enzyme Activity gt 1b Ki
Method: as §1, §2, §3, §4
as §3, with “(1996); Mao et al., Analytical Biochemistry 373: 1-8, 2008. Measuring Compound Inhibitory Potency (Replicon EC50 (nM))” for “(1996).”

[5] = 10% Fetal Bovine Serum, read-out: gt 1b Replicon EC50 10% FBS
[6] = 50% Normal Human Serum, read-out: gt 1b Replicon EC50 50% NHS

C=C[C@@H]1C[C@]1(NC(=O)[C@@H]1C[C@@H]2CN1C(=O)[C@H](C(C)(C)C)NC(=O)O[C@]1(C)C[C@H]1CCCCCc1nc3ccccc3nc1O2)C(=O)NS(=O)(=O)C1CC1 [Example I-8, (1aR,5S,8S,10R,22aR)-5-tert-butyl-N-{(1R,2S)-1-[(cyclopropylsulfonyl)carbamoyl]-2-ethenylcyclopropyl}-1a-methyl-3,6-dioxo-1,1a,3,4,5,6,9,10,18,19, 20,21,22,22a-tetra decahydro-8H-7,10-methanocyclopropa[18, 19][1,10,3,6]dioxatriaza cyclononadecino[11,12-b]quinoxaline-8-carboxamide]
Ki [1]: 11.5 nM
Ki [2]: 0.5 nM
EC50 [3, 5]: 2 nM
EC50 [3, 6]: 6 nM
Ki [4]: 0.02 nM

C=C[C@@H]1C[C@]1(NC(=O)[C@@H]1C[C@@H]2CN1C(=O)[C@H](C(C)(C)C)NC(=O)O[C@]1(C)C[C@H]1CCCCCc1nc3ccc(OC)cc3cc1O2)C(=O)NS(=O)(=O)C1CC1 [Example I-10, (1aR,5S,8S,10R,22aR)-5-tert-butyl-N-{(1R,2S)-1-[(cyclopropylsulfonyl)carbamoyl]-2-ethenylcyclopropyl}-14-methoxy-1a-methyl-3,6-dioxo-1,1a,3,4,5,6,9,10,18,19,20,21,22, 22a-tetradecahydro-8H-7,10-methanocyclo propa[18,19][1,10,3,6] dioxadiazacyclonona decino[12,11-b] quinoline-8-carboxamide]
Ki [1]: 4.2 nM
Ki [2]: 0.2 nM
EC50 [3, 5]: 4 nM
EC50 [3, 6]: 10 nM
Ki [4]: 0.02 nM

C=C[C@@H]1C[C@]1(NC(=O)[C@@H]1C[C@@H]2CN1C(=O)[C@H](C1CCCC1)NC(=O)O[C@]1(C)C[C@H]1CCC/C=C/c1cccc3c1CN(C3)C(=O)O2)C(=O)NS(=O)(=O)C1CC1 [Example I-12, (1aR,5S,8S,10R,19E,23aR)-5-cyclopentyl-N-{(1R,2S)-1-[(cyclopropylsulfonyl)carbamoyl]-2-ethenylcyclopropyl}-1a-methyl-3,6,12-trioxo-1a,3,4,5,6,9,10, 14,21,22,23,23a-dodecahydro-1H,8H-7,10:13,15-dimethano cyclopropa[n][4,13,2,8, 11]benzodioxatriaza cyclodocosine-8(12H)-carboxamide]
Ki [1]: 1.4 nM
Ki [2]: 12 nM
EC50 [3, 5]: 5 nM
EC50 [3, 6]: 19 nM
Ki [4]: 0.02 nM

C=C[C@@H]1C[C@]1(NC(=O)[C@@H]1C[C@@H]2CN1C(=O)[C@H](C1CCCC1)NC(=O)O[C@]1(C)C[C@H]1CCCCCc1cccc3c1CN(C3)C(=O)O2)C(=O)NS(=O)(=O)C1CC1 [Example I-13, (1aR,5S,8S,10R,23aR)-5-cyclopentyl-N-{(1R,2S)-1-[(cyclopropylsulfonyl)carbamoyl]-2-ethenylcyclopropyl}-1a-methyl-3,6,12-trioxo-1a,3,4,5,6,9,10, 14,19,20,21,22,23,23a-tetradecahydro-1H,8H-7,10:13,15-dimethano cyclopropa[n][4,13,2,8, 11]benzodioxatriaza cyclodocosine-8(12H)-carboxamide]
Ki [1]: 0.4 nM
Ki [2]: 32.9 nM
EC50 [3, 5]: 4 nM
EC50 [3, 6]: 16 nM
Ki [4]: 0.02 nM

C=C[C@@H]1C[C@]1(NC(=O)[C@@H]1C[C@@H]2CN1C(=O)[C@H](C1CCCC1)NC(=O)O[C@]1(C)CCC[C@H]1CCCCCc1c(nc3ccccc3c1O)O2)C(=O)NS(=O)(=O)C1CC1 [Example I-16, (3aR,7S,10S,12R,24aR)-7-cyclopentyl-N-{(1R,2S)-1-[(cyclopropylsulfonyl)carbamoyl]-2-ethenylcyclopropyl}-19-hydroxy-3a-methyl-5,8-dioxo-1,2,3,3a,5,6,7,8,11,12,20,21,22,23,24, 24a-hexadecahydro-10H-9,12-methano cyclopenta[18,19][1,10,3,6]dioxadiazacyclo nonadecino[11,12-b]quinoline-10-carboxamide]
Ki [1]: 2.4 nM
Ki [2]: 1.4 nM
EC50 [3, 5]: 9 nM
EC50 [3, 6]: 27 nM
Ki [4]: 0.02 nM

CC[C@@H]1C[C@]1(NC(=O)[C@@H]1C[C@@H]2CN1C(=O)[C@H](C1CCCC1)NC(=O)O[C@]1(C)CCC[C@H]1CCCCCc1c(nc3ccccc3c1O)O2)C(=O)NS(=O)(=O)C1CC1 [Example I-18, (3aR,7S,10S,12R,24aR)-7-cyclopentyl-N-{(1R,2R)-1-[(cyclopropylsulfonyl)carbamoyl]-2-ethylcyclopropyl}-19-hydroxy-3a-methyl-5,8-dioxo-1,2,3,3a,5,6,7,8,11,12,20,21,22,23,24, 24a-hexadecahydro-10H-9,12-methano cyclopenta[18,19][1,10,3,6]dioxadiazacyclo nonadecino[11,12-b]quinoline-10-carboxamide]
Ki [1]: 42.5 nM
Ki [2]: 9.2 nM
EC50 [3, 5]: 30 nM
EC50 [3, 6]: 35 nM
Ki [4]: 0.07 nM

C=C[C@@H]1C[C@]1(NC(=O)[C@@H]1C[C@@H]2CN1C(=O)[C@H](C1CCCC1)NC(=O)O[C@]1(C)C[C@H]1CC/C=C/Cn1c(nc3cc(C)ccc3c1=O)O2)C(=O)NS(=O)(=O)C1CC1 [Example I-23, (1aR,5S,8S,10R,20E,23aR)-5-cyclopentyl-N-{(1R,2S)-1-[(cyclopropylsulfonyl)carbamoyl]-2-ethenylcyclopropyl}-1a,14-dimethyl-3,6,17-trioxo-1,1a,3,4,5,6,9,10,19,22,23,23a-dodecahydro-8H,17H-7,10-methano cyclopropa[18,19][1, 10,3,6,12]dioxatriaza cyclononadecino[11,12-b]quinazoline-8-carboxamide]
Ki [1]: 1.2 nM
Ki [2]: 1 nM
EC50 [3, 5]: 2 nM
EC50 [3, 6]: 6 nM
Ki [4]: 0.02 nM
